Results as given in ChEMBL document CHEMBL1201862, “PubChem BioAssay data set” (2004).
Where “and” joins values, the source holds several entries; their conditions need not be identical. Equal values may be shown once.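 These data come from cells grown in 96-well plates and exposed to compound for 48 hours at five concentrations. At the GI50, growth is halved.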 Calls of active or inactive are those of the source. Cut-off read from the data, not from the text of the source: active = GI50 up to about 1.1 µM and inactive = higher.

Assays:
Assay in all cases: NCI tumour cell line growth inhibition, 48 h
IGROV-1 = test system: IGROV-1
Hs-578T = test system: Hs-578T
DU-145 = test system: DU-145
OVCAR-5 = test system: OVCAR-5
EKVX = test system: EKVX
SK-MEL-5 = test system: SK-MEL-5
HOP-62 = test system: HOP-62
A498 = test system: A498
OVCAR-4 = test system: OVCAR-4
SF-268 = test system: SF-268
NCI-H226 = test system: NCI-H226
A549 = test system: A549
TK-10 = test system: TK-10
SF-295 = test system: SF-295
SNB-19 = test system: SNB-19
SK-OV-3 = test system: SK-OV-3
UACC-62 = test system: UACC-62
KM12 = test system: KM12
LOX IMVI = test system: LOX IMVI
MOLT-4 = test system: MOLT-4
M14 = test system: M14
PC-3 = test system: PC-3
OVCAR-3 = test system: OVCAR-3
UACC-257 = test system: UACC-257
SK-MEL-28 = test system: SK-MEL-28
RXF 393 = test system: RXF 393
T47D = test system: T47D
SNB-75 = test system: SNB-75
COLO 205 = test system: COLO 205
MDA-MB-231 = test system: MDA-MB-231
HCC 2998 = test system: HCC 2998
MDA-MB-435 = test system: MDA-MB-435
Malme-3M = test system: Malme-3M
SK-MEL-2 = test system: SK-MEL-2
K562 = test system: K562
CCRF-CEM = test system: CCRF-CEM
RPMI-8226 = test system: RPMI-8226
NCI-H460 = test system: NCI-H460
ACHN = test system: ACHN
SR = test system: SR
SW-620 = test system: SW-620
NCI-H522 = test system: NCI-H522
MDA-N = test system: MDA-N
HT-29 = test system: HT-29
HCT-15 = test system: HCT-15
U-251 = test system: U-251
HL-60 = test system: HL-60
CAKI-1 = test system: CAKI-1
NCI/ADR-RES = test system: NCI/ADR-RES
MCF7 = test system: MCF7
SN12C = test system: SN12C
OVCAR-8 = test system: OVCAR-8
786-0 = test system: 786-0
NCI-H23 = test system: NCI-H23

| SMILES | GI50 (IGROV-1) | GI50 (Hs-578T) | GI50 (DU-145) | GI50 (OVCAR-5) | GI50 (EKVX) | GI50 (SK-MEL-5) | GI50 (A498) | GI50 (A549) | GI50 (SF-295) | GI50 (KM12) | GI50 (MOLT-4) | GI50 (PC-3) | GI50 (UACC-257) | GI50 (SK-MEL-28) | GI50 (T47D) | GI50 (SNB-75) | GI50 (COLO 205) | GI50 (MDA-MB-231) | GI50 (HCC 2998) | GI50 (Malme-3M) | also measured |
| --- | --- | --- | --- | --- | --- | --- | --- | --- | --- | --- | --- | --- | --- | --- | --- | --- | --- | --- | --- | --- | --- |
| Cc1nc2ccc(Br)cc2c(=O)n1-c1ccc(NC2OCC(O)C(O)C2O)cc1 (centres undefined) | 62.4 µM (inactive) | 58.9 µM (inactive) | > 100 µM (inactive) | > 100 µM (inactive) | > 100 µM (inactive) | 58.3 µM (inactive) | > 100 µM (inactive) | > 100 µM (inactive) | > 100 µM (inactive) |  |  |  |  |  |  |  |  |  |  |  | GI50 (HOP-62): > 100 µM (inactive); GI50 (OVCAR-4): > 100 µM (inactive) and 87.5 µM (inactive); GI50 (SF-268): > 100 µM (inactive) and 55.6 µM (inactive); GI50 (NCI-H226): > 100 µM (inactive); GI50 (TK-10): > 100 µM (inactive) and 59.3 µM (inactive); GI50 (SNB-19): > 100 µM (inactive) |
| O=C1c2scc(-c3ccc(Cl)cc3)c2-n2cccc21 | 3.17 µM (inactive) | 1.95 µM (inactive) | > 100 µM (inactive) | > 100 µM (inactive) | 2.47 µM (inactive) | > 100 µM (inactive) | 1.11 µM (active) | > 100 µM (inactive) | > 100 µM (inactive) | 5.25 µM (inactive) | 73.3 µM (inactive) | > 100 µM (inactive) | > 100 µM (inactive) | > 100 µM (inactive) | > 100 µM (inactive) | 2.4 µM (inactive) | > 100 µM (inactive) | 14 µM (inactive) | > 100 µM (inactive) | > 100 µM (inactive) | GI50 (SK-OV-3): > 100 µM (inactive); GI50 (UACC-62): 7.13 µM (inactive); GI50 (LOX IMVI): > 100 µM (inactive); GI50 (M14): 50.5 µM (inactive); GI50 (OVCAR-3): > 100 µM (inactive); GI50 (RXF 393): > 100 µM (inactive); GI50 (MDA-MB-435): 8.04 µM (inactive); GI50 (SK-MEL-2): > 100 µM (inactive); GI50 (K562): 3.93 µM (inactive); GI50 (CCRF-CEM): > 100 µM (inactive); GI50 (RPMI-8226): > 100 µM (inactive); GI50 (NCI-H460): > 100 µM (inactive); GI50 (ACHN): > 100 µM (inactive); GI50 (SR): 2.84 µM (inactive); GI50 (SW-620): > 100 µM (inactive); GI50 (NCI-H522): 2.98 µM (inactive); GI50 (MDA-N): 8.65 µM (inactive) |
| CC(=O)OCC1OC(n2c(-c3ccccc3)c(C)c(C)c(C#N)c2=S)C(OC(C)=O)C(OC(C)=O)C1OC(C)=O (centres undefined) | > 100 µM (inactive) |  |  | 37.3 µM (inactive) | 13.5 µM (inactive) and 14.8 µM (inactive) | > 100 µM (inactive) | > 50 µM (inactive) and 43.8 µM (inactive) |  | 21 µM (inactive) and 23.1 µM (inactive) | > 50 µM (inactive) | > 50 µM (inactive) | 26.4 µM (inactive) | 54.5 µM (inactive) | 72.4 µM (inactive) | > 50 µM (inactive) and 34 µM (inactive) | > 100 µM (inactive) | > 100 µM (inactive) | 12.9 µM (inactive) and 12.8 µM (inactive) | > 50 µM (inactive) and 86.3 µM (inactive) | > 50 µM (inactive) and 38.1 µM (inactive) | GI50 (HT-29): > 50 µM (inactive); GI50 (HCT-15): 64.4 µM; GI50 (OVCAR-3): 37.4 µM (inactive) and 27.2 µM (inactive); GI50 (U-251): 20.3 µM (inactive); GI50 (HL-60): > 100 µM (inactive); GI50 (MDA-MB-435): 57.5 µM (inactive); GI50 (CAKI-1): > 50 µM (inactive); GI50 (NCI/ADR-RES): 34.2 µM (inactive) and 47.4 µM (inactive); GI50 (NCI-H226): > 50 µM (inactive); GI50 (MCF7): > 50 µM (inactive); GI50 (NCI-H460): > 50 µM (inactive) and 43.4 µM (inactive); GI50 (NCI-H522): > 50 µM (inactive) and 65.8 µM (inactive); GI50 (MDA-N): 28.8 µM (inactive) and 18.1 µM (inactive) |
| CCOC(=O)c1sc2nc(-c3ccccc3)nn2c1CBr | 3.17 µM (inactive) |  | > 10 µM (inactive) |  | > 10 µM (inactive) | 1.77 µM (inactive) |  | 5.11 µM (inactive) | 9.29 µM (inactive) | 2.11 µM (inactive) | 0.296 µM (active) | 2.06 µM (inactive) | 2.16 µM (inactive) | 1.95 µM (inactive) | 2.42 µM (inactive) | 2.24 µM (inactive) | 1.9 µM (inactive) | 1.9 µM (inactive) | 5.33 µM (inactive) | 2.07 µM (inactive) | GI50 (SK-OV-3): 3.12 µM (inactive); GI50 (SN12C): 1.74 µM (inactive); GI50 (HT-29): 1.89 µM (inactive); GI50 (OVCAR-8): 2.07 µM (inactive); GI50 (LOX IMVI): 1.56 µM (inactive); GI50 (M14): 1.51 µM (inactive); GI50 (786-0): 1.6 µM (inactive); GI50 (RXF 393): 2.59 µM (inactive); GI50 (HOP-62): > 10 µM (inactive); GI50 (HL-60): 0.348 µM (active); GI50 (NCI-H23): 1.94 µM (inactive); GI50 (CAKI-1): 1.5 µM (inactive); GI50 (SF-268): 2.04 µM (inactive); GI50 (K562): 0.589 µM (active); GI50 (MCF7): 1.91 µM (inactive); GI50 (CCRF-CEM): 0.244 µM (active); GI50 (RPMI-8226): 1.74 µM (inactive); GI50 (TK-10): 2.34 µM (inactive); GI50 (SR): 0.311 µM (active); GI50 (SW-620): 1.73 µM (inactive) |
